Converted amounts (≈) assume the structure as drawn. Like-named read-outs stand apart in the source and are kept apart here.
Columns and labels:
[1] = tested on: H. pylori, ATCC 43504; experiment: Antibacterial power test, Columbia agar, MIC; assay type: cell-based, Helicobacter pylori; details: 37° C., pH 7.0, 3 days, read on 4th day; for MIC: Helicobacter pylori, ATCC43504, 72 h, read-out: MIC, in vitro anti-Helicobacter pylori activity
Experimental: An in vitro test was performed in a Columbia agar medium using a standard strain of H. pylori, ATCC 43504. […] Each of the test objects was dissolved in a 1% DMSO solution. Furthermore, as antibiotic control drugs, ampicillin from the penicillin family (control drug 1), gentamycin from the aminoglycoside family (control drug 2), tetracycline from the tetracycline family (control drug 3), and ofloxacin from the new quinolone family (control drug 4) were used.

[2] = tested on: various gram-negative bacteria and gram-positive bacteria; experiment: In vitro antibacterial test against various bacteria, overall statement; assay type: cell-based; details: bacteria of Table 4
Experimental: (§1) An in vitro antibacterial test for the compounds of Examples 1 to 6 against various bacteria was performed. As gram-negative bacteria, Escherichia coli (ATCC 10536, ATCC 25922), Klebsiella pneumonia (ATCC 10031), Proteus vulgaris (ATCC 13315), Pseudomonas aeruginosa (ATCC 9027), Salmonella typhimurium (ATCC 13311), and as gram-positive bacteria, Staphylococcus aureus, MRSA (ATCC 33591), Staphylococcus epidermidis (ATCC 12228), Streptococcus pneumonia (ATCC 6301), Mycobacterium ranae (ATCC 110) and Enterococcus faecalis (VRE, ATCC 51575) were used. The various bacteria were cultured at 37° C. for 20 to 48 hours by conventional methods, and the minimum inhibitory concentrations (MIC, μg/ml) were determined. Each of the test objects were dissolved in a 1% DMSO solution. Furthermore, as an antibiotic control drug, gentamycin (GEM) from the aminoglycoside family was used.

[3] = tested on: Escherichia coli (ATCC 10536); experiment: In vitro antibacterial test against various bacteria, MIC; assay type: cell-based; details: 20 to 48 hours
Experimental: as §1

[4] = tested on: Salmonella typhimurium (ATCC 13311); experiment: as above; assay type: cell-based; details: 37° C., 20 to 48 hours
Experimental: as §1

[5] = tested on: Staphylococcus aureus, MRSA (ATCC 33591); experiment: as above; assay type: cell-based; details: 37° C., 20 to 48 hours
Experimental: as §1

[6] = tested on: Staphylococcus epidermidis (ATCC 12228); experiment: as above; assay type: cell-based; details: 20 to 48 hours
Experimental: as §1

[7] = tested on: Pseudomonas aeruginosa (ATCC 9027); experiment: as above; assay type: cell-based; details: 20 to 48 hours
Experimental: as §1

[8] = tested on: Mycobacterium ranae (ATCC 110); experiment: as above; assay type: cell-based; details: 20 to 48 hours
Experimental: as §1

[9] = tested on: Klebsiella pneumonia (ATCC 10031); experiment: as above; assay type: cell-based; details: 20 to 48 hours
Experimental: as §1

[10] = tested on: Escherichia coli (ATCC 25922); experiment: as above; assay type: cell-based; details: 20 to 48 hours
Experimental: as §1

[11] = tested on: Proteus vulgaris (ATCC 13315); experiment: as above; assay type: cell-based; details: 20 to 48 hours
Experimental: as §1

[12] = tested on: H. pylori NCTC 11916; experiment: In vitro MIC test in Columbia agar, standard strain; assay type: cell-based, Helicobacter pylori; details: for MIC: Helicobacter pylori, NCTC11916, 72 h, standard strain NCTC 11916, 37° C., pH 7.0, 3 days
Experimental: (§2) An in vitro test was performed in a Columbia agar medium using standard strains of H. pylori, NCTC 11637 and 11916, clinical isolates PT#1045482, PT#1045483 and PT#1045484, and ofloxacin- and roxithromycin-resistant, clinical isolates TY2, 4 and 5. Each of the test objects was dissolved in a 1% DMSO solution. Furthermore, as antibiotic control drugs, roxithromycin from the macrolide family and ofloxacin from the new quinolone family were used. The strains were cultured at 37° C. and pH 7.0 for 3 days, and on the 4th day, the minimum inhibitory concentrations (MIC, μg/ml) were determined.

[13] = tested on: H. pylori NCTC 11637; experiment: as above; assay type: cell-based, Helicobacter pylori; details: for MIC: Helicobacter pylori, NCTC11637, 72 h, standard strain NCTC 11637, 37° C., pH 7.0, 3 days
Experimental: as §2

[14] = tested on: H. pylori ofloxacin- and roxithromycin-resistant clinical isolate TY5; experiment: In vitro MIC test in Columbia agar, resistant clinical isolate; assay type: cell-based; details: Helicobacter pylori, 72 h; resistant strain TY5; 37° C., pH 7.0, 3 days
Experimental: as §2

[15] = tested on: H. pylori ofloxacin- and roxithromycin-resistant clinical isolate TY2; experiment: as above; assay type: cell-based; details: Helicobacter pylori, 72 h; resistant strain TY2; 37° C., pH 7.0, 3 days
Experimental: as §2

[16] = tested on: H. pylori ofloxacin- and roxithromycin-resistant clinical isolate TY4; experiment: as above; assay type: cell-based; details: Helicobacter pylori, 72 h; resistant strain TY4; 37° C., pH 7.0, 3 days
Experimental: as §2

[17] = tested on: H. pylori clinical isolate PT#1045482; experiment: In vitro MIC test in Columbia agar, clinical isolate; assay type: cell-based; details: Helicobacter pylori, 72 h, 37° C., pH 7.0, 3 days
Experimental: as §2

[18] = tested on: H. pylori clinical isolate PT#1045483; experiment: as above; assay type: cell-based; details: Helicobacter pylori, 72 h, 37° C., pH 7.0, 3 days
Experimental: as §2

[19] = tested on: H. pylori clinical isolate PT#1045484; experiment: as above; assay type: cell-based; details: Helicobacter pylori, 72 h, 37° C., pH 7.0, 3 days
Experimental: as §2

[20] = tested on: Enterococcus faecalis (VRE, ATCC 51575); experiment: In vitro antibacterial test against various bacteria, MIC; assay type: cell-based; details: 37° C., 20 to 48 hours
Experimental: as §1

[21] = tested on: Streptococcus pneumonia (ATCC 6301); experiment: as above; assay type: cell-based; details: Streptococcus pneumoniae, ATCC6301, 37° C., 20 to 48 hours
Experimental: as §1

[22] = ATCC10536, 37° C., read-out: MIC
[23] = Salmonella enterica, read-out: MIC
[24] = ATCC12228, 37° C., read-out: MIC
[25] = ATCC9027, 37° C., read-out: MIC
[26] = Klebsiella pneumoniae, ATCC10031, 37° C., read-out: MIC
[27] = ATCC25922, 37° C., read-out: MIC
[28] = ATCC13315, 37° C., read-out: MIC

Compound | MIC [1] | MIC [12] | MIC [13] | MIC [14] | MIC [15] | MIC [16] | MIC [17] | MIC [18] | MIC [19] | MIC [3, 22] | MIC [4, 23] | MIC ([5]; read-out: MIC) | MIC [6, 24] | MIC [7, 25] | MIC [20] | MIC [21] | MIC ([8]; ATCC110, 37° C., read-out: MIC) | MIC [9, 26] | MIC [10, 27] | MIC [11, 28] | further results
gentamycin [Control Drug 2 (Gentamycin), reference compound] | – | – | – | – | – | – | – | – | – | – | – | – | – | – | – | – | – | – | – | – | MIC, in vitro anti-Helicobacter pylori activity [1]: 0.3 µg/mL; antibacterial action against various gram-negative and gram-positive bacteria (in words) [2]: strong antibacterial action; MIC ([3]; 37° C.): 0.3 µg/mL; MIC [4]: 1.0 µg/mL; MIC [5]: 1.0 µg/mL; MIC ([6]; 37° C.): 0.1 µg/mL; MIC ([7]; 37° C.): 0.3 µg/mL; MIC ([8]; 37° C.): 0.3 µg/mL; MIC ([9]; 37° C.): 1.0 µg/mL; MIC ([10]; 37° C.): 1.0 µg/mL; MIC ([11]; 37° C.): 0.3 µg/mL
Cc1c(OCCCCCO)ccnc1CSc1nc2ccccc2[nH]1 [Example 1, 2-[{4-(5-hydroxypentyloxy)-3-methylpyridin-2-yl}methylthio]-1H-benzimidazole] | 0.3 µg/mL (≈ 0.839 µM) | 0.3 µg/mL (≈ 0.839 µM) | 0.3 µg/mL (≈ 0.839 µM) | 0.3 µg/mL (≈ 0.839 µM) | 0.2 µg/mL (≈ 0.559 µM) | 0.3 µg/mL (≈ 0.839 µM) | 0.2 µg/mL (≈ 0.559 µM) | 0.3 µg/mL (≈ 0.839 µM) | 0.3 µg/mL (≈ 0.839 µM) | > 100 µg/mL | > 100 µg/mL | > 100 µg/mL | > 100 µg/mL | > 100 µg/mL | > 100 µg/mL | > 100 µg/mL | > 100 µg/mL | > 100 µg/mL | > 100 µg/mL | > 100 µg/mL | –
Cc1c(OCCCCCCCCCO)ccnc1CSc1nc2ccccc2[nH]1 [Example 5, 2-[{4-(9-hydroxynonyloxy)-3-methylpyridin-2-yl}methylthio]-1H-benzimidazole] | 0.1 µg/mL (≈ 0.242 µM) | 0.1 µg/mL (≈ 0.242 µM) | 0.1 µg/mL (≈ 0.242 µM) | 0.2 µg/mL (≈ 0.484 µM) | 0.1 µg/mL (≈ 0.242 µM) | 0.3 µg/mL (≈ 0.725 µM) | 0.2 µg/mL (≈ 0.484 µM) | 0.1 µg/mL (≈ 0.242 µM) | 0.1 µg/mL (≈ 0.242 µM) | > 100 µg/mL | > 100 µg/mL | > 100 µg/mL | > 100 µg/mL | > 100 µg/mL | > 100 µg/mL | > 100 µg/mL | > 100 µg/mL | > 100 µg/mL | > 100 µg/mL | > 100 µg/mL | –
Cc1c(OCCCCCCO)ccnc1CSc1nc2ccccc2[nH]1 [Example 2, 2-[{4-(6-hydroxyhexyloxy)-3-methylpyridin-2-yl}methylthio]-1H-benzimidazole] | 0.1 µg/mL (≈ 0.269 µM) | 0.1 µg/mL (≈ 0.269 µM) | 0.1 µg/mL (≈ 0.269 µM) | 0.1 µg/mL (≈ 0.269 µM) | 0.3 µg/mL (≈ 0.808 µM) | 0.1 µg/mL (≈ 0.269 µM) | 0.1 µg/mL (≈ 0.269 µM) | 0.1 µg/mL (≈ 0.269 µM) | 0.3 µg/mL (≈ 0.808 µM) | > 100 µg/mL | > 100 µg/mL | > 100 µg/mL | > 100 µg/mL | > 100 µg/mL | > 100 µg/mL | > 100 µg/mL | > 100 µg/mL | > 100 µg/mL | > 100 µg/mL | > 100 µg/mL | –
Cc1c(OCCCCCCCCO)ccnc1CSc1nc2ccccc2[nH]1 [Example 4, 2-[{4-(8-hydroxyoctyloxy)-3-methylpyridin-2-yl}methylthio]-1H-benzimidazole] | 0.03 µg/mL (≈ 0.0751 µM) | 0.03 µg/mL (≈ 0.0751 µM) | 0.03 µg/mL (≈ 0.0751 µM) | 0.03 µg/mL (≈ 0.0751 µM) | 0.03 µg/mL (≈ 0.0751 µM) | 0.1 µg/mL (≈ 0.25 µM) | 0.03 µg/mL (≈ 0.0751 µM) | 0.03 µg/mL (≈ 0.0751 µM) | 0.03 µg/mL (≈ 0.0751 µM) | > 100 µg/mL | > 100 µg/mL | > 100 µg/mL | > 100 µg/mL | > 100 µg/mL | > 100 µg/mL | > 100 µg/mL | > 100 µg/mL | > 100 µg/mL | > 100 µg/mL | > 100 µg/mL | activity compared to the compounds (e) and (f) ([12]; standard strain NCTC11916): 52 fold; activity compared to the compounds (e) and (f) ([13]; standard strain NCTC11637): 26.6 fold

From patent US20090143438A1, “Novel Pyridine Derivative Having Anti-Helicobacter Pylori Activity” (Arigen Pharmaceuticals, Inc., priority 2006, published 2009)
